This note sets out measurements from ChEMBL document CHEMBL1126815, “Synthesis and squalene synthetase inhibitory activity of tripotassium 1-methyl-1-[(N-benzyl-N-farnesyl)aminoethylphosphinato]ethylphosphonate as a tethered analog of N-benzyl-N-farnesylamine-inorganic pyrophosphate ion pair” (Bioorg Med Chem Lett, 1993).

This assay addresses T1, Squalene synthase (Rattus norvegicus, UniProt Q02769).
T1 sequence (Q02769 whole entry): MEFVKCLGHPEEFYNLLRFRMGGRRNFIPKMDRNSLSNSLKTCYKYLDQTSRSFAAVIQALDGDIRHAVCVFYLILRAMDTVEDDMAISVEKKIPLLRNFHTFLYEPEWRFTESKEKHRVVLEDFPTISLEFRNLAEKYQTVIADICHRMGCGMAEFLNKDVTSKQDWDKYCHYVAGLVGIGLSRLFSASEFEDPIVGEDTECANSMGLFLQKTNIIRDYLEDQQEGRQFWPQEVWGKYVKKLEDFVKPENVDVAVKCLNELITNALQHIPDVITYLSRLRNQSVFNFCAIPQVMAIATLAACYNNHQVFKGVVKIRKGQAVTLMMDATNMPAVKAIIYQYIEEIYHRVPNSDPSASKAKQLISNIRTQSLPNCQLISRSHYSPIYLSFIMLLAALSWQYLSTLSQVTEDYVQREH
Description: Tested for the squalene synthetase inhibitory activity in rat liver microsomal assay. Type of assay: microsomes. In general terms: Liver microsomes are a subcellular fraction often used to study metabolism.

In general, IC50 refers to the point on the concentration scale where inhibition reaches its midpoint.

`CC(C)=CCC/C(C)=C/CC/C(C)=C/CNCc1ccccc1.O=P(O)(O)OP(=O)(O)O` had an IC50 of 10 nM. This lies in the double-digit nanomolar range.
Compound `CC(C)=CCC/C(C)=C/CC/C(C)=C/CN(CCP(=O)(O)C(C)(C)P(=O)(O)O)Cc1ccccc1` registered an IC50 of 20 nM. This IC50 is about 2-fold higher than that of the compound before.
